Measured values: patent US20250163066A1, “PROTACs of MALT1” (TEGID THERAPEUTICS, INC., priority 2022, published 2025)

Legend:
[1] = biological target: T1, MALT1 (Homo sapiens (Human), UniProt Q9UDY8); assay: MALT1 enzymatic activity inhibition (fluorescence, Ac-LRSR-AMC substrate); type: biochemical; settings: recombinant MALT1 1.5 ng/μl, Ac-LRSR-AMC 1 μM
Procedure, shortened: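 Recombinant human MALT1 (1.5 ng/μl final) preincubated 10 min at rt with compounds in 50 mM HEPES pH 7.2-7.4, 100 mM NaCl, 900 mM sodium citrate, 10 mM DTT; 1 μM Ac-LRSR-AMC then added. AMC fluorescence read at start and after 30 min 37 °C plus 30 min rt; difference gives signal, % inhibition fitted to IC50.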

[2] = system: IL-2 MALT1-dependent release in Jurkat cells; assay: cells; type: cell-based; settings: Homo sapiens; for EC50: Jurkat cells stimulated with antiCD3/antiCD28 for 24 h, IL-2 ELISA, read-out: EC50, IL-2 MALT1-dependent release inhibition; for CC50: Jurkat, 24 h, read-out: CC50 (IL-2 MALT1-dependent release inhibition)
Description: Jurkat cells (ATCC, USA) (100,000 cells/well in a 96 well flat-bottom plate (Greiner, #655061) were cultured in RPMI 1640 supplemented with 10% FBS at 37° C., 5% CO2 in a humidified cell culture incubator for 0.5-1 h. Then 10 μl/well 15× compound (or DMSO) was added in duplicates. Cells were incubated with compound in a humidified cell culture incubator for 0.5-1 h. After the incubation, 10 μl/well of 15× human antiCD3 HIT3a antibody (BioLegend) together with 10 μl/well of 15× human antiCD28 antibody (Invitrogen) were added to stimulate Jurkat cells for 24 h. After 24 h of stimulation, supernatants were collected and IL-2 levels in supernatants were assessed using IL-2 ELISA kit (Vector-Best, Russia).

[3] = biological target: T1, MALT1; assay: MALT1 degradation in JeKo-1 cells (capillary Western blotting); type: cell-based; settings: 48 h incubation, read-out: EC50 for MALT1 degradation
Description: JeKo-1 cells (ATCC, USA) were cultured in RPMI 1640 supplemented with 10% FBS at 37° C., 5% CO2 in a humidified cell culture incubator. 1 ml of cells (1*10^6 cells per well) was transferred to each well of a 24-well plate (Greiner, #662160). Then 40 μl/well 25× compound (or DMSO) were added. Cells were incubated with compound in a humidified cell culture incubator for 48 h. At the end of incubation, cell suspension was transferred from wells into 2 ml tubes (Greiner, #623201), centrifuged at 300 g for 5 min and the supernatant was discarded. Then cell pellets were washed with cooled PBS. Cell lysates were prepared by adding 40 μl of RIPA lysis buffer (ProteinSimple, #040-483) to the cell pellet. […] Next, protein concentration in cell lysates was determined by Pierce™ Coomassie (Bradford) Protein Assay Kit (Thermo Scientific, #23200) according to manufacturer's instructions.
Levels of MALT1, Bcl10 and CYLD proteins in prepared cell lysates were assessed in capillary Western blotting system Jess (JS-3030, ProteinSimple) using 12-230 kDa Separation Module (ProteinSimple #SM-W004), Anti-Mouse Detection Module (ProteinSimple #DM-002) and Anti-Rabbit Detection Module (ProteinSimple #DM-001) according to manufacturer's instructions. […] Beta-actin was used as a loading control detected by anti-beta-actin primary antibodies (RnD Systems, #MAB8929) at 1:100 dilution.

T1 sequence (Q9UDY8 whole entry): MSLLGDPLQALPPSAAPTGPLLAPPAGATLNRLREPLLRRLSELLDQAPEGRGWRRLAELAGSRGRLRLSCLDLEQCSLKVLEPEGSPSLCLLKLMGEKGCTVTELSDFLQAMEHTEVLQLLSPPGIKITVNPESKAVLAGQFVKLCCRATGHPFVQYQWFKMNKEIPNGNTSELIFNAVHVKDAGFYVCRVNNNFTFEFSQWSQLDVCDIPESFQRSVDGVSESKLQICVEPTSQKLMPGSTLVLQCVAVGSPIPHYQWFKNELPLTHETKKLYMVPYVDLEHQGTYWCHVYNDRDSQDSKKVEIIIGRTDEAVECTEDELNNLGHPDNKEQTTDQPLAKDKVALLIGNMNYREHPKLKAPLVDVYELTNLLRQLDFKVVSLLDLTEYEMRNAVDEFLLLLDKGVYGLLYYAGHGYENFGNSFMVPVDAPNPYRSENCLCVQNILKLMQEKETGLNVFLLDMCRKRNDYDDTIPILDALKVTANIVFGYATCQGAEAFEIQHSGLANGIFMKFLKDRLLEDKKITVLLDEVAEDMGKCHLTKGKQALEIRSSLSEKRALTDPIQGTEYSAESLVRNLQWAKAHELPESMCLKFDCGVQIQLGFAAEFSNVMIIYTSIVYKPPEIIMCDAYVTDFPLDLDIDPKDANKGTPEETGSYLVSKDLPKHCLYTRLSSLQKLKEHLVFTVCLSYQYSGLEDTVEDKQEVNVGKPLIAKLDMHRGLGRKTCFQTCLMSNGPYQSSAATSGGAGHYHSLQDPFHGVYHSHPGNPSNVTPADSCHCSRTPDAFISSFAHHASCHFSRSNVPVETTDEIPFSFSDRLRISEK

SMILES	EC50 [1]	EC50 [2]	DC50 [3]	CC50 [2]
Cc1cc(NC(=O)Nc2cnc3ccnn3c2C2CCCO2)cnc1-c1noc(CCCCCC(=O)N2CCN(c3ccc4c(c3)CN(C3CCC(=O)NC3=O)C4=O)CC2)n1 (stereo not shown) [Compound 2, 1-[6-[5-[6-[4-[2-(2,6-dioxo-3-piperidyl)-1-oxo-isoindolin-5-yl]piperazin-1-yl]-6-oxo-hexyl]-1,2,4-oxadiazol-3-yl]-5-methyl-3-pyridyl]-3-(7-tetrahydrofuran-2-ylpyrazolo[1,5-a]pyrimidin-6-yl)urea]	≤ 0.2 µM	500 to 1000 nM	85 nM	–
O=C1CCC(N2Cc3cc(N4CCN(C(=O)CCCc5nc(-c6ncc(NC(=O)Nc7cnc8ccnn8c7C7CCCC7)cc6C(F)(F)F)no5)CC4)ccc3C2=O)C(=O)N1 (stereo not shown) [Compound 106, 1-(7-cyclopentylpyrazolo[1,5-a]pyrimidin-6-yl)-3-[6-[5-[4-[4-[2-(2,6-dioxo-3-piperidyl)-1-oxo-isoindolin-5-yl]piperazin-1-yl]-4-oxo-butyl]-1,2,4-oxadiazol-3-yl]-5-(trifluoromethyl)-3-pyridyl]urea]	≤ 0.2 µM	< 500 nM	–	–
Cc1cc(NC(=O)Nc2cnc3ccnn3c2C2CCCCC2)cnc1-c1noc(CCCCCC(=O)N2CCN(c3ccc4c(c3)CN(C3CCC(=O)NC3=O)C4=O)CC2)n1 (stereo not shown) [Compound 107, 1-(7-cyclohexylpyrazolo[1,5-a]pyrimidin-6-yl)-3-[6-[5-[6-[4-[2-(2,6-dioxo-3-piperidyl)-1-oxo-isoindolin-5-yl]piperazin-1-yl]-6-oxo-hexyl]-1,2,4-oxadiazol-3-yl]-5-methyl-3-pyridyl]urea]	≤ 0.2 µM	1000 to 5000 nM	–	–
O=C1CCC(N2Cc3cc(N4CCN(CCCCCc5nc(-c6ncc(NC(=O)Nc7cnc8ccnn8c7C7CCCC7)cc6C(F)(F)F)no5)CC4)ccc3C2=O)C(=O)N1 (stereo not shown) [Compound 108, 1-(7-cyclopentylpyrazolo[1,5-a]pyrimidin-6-yl)-3-[6-[5-[5-[4-[2-(2,6-dioxo-3-piperidyl)-1-oxo-isoindolin-5-yl]piperazin-1-yl]pentyl]-1,2,4-oxadiazol-3-yl]-5-(trifluoromethyl)-3-pyridyl]urea]	≤ 0.2 µM	< 500 nM	–	–
Cc1cc(NC(=O)Nc2cnc3ccnn3c2C2CCCCC2)cnc1-c1noc(CCCCCC(=O)Nc2ccc3c(c2)CN(C2CCC(=O)NC2=O)C3=O)n1 (stereo not shown) [Compound 109, 6-[3-[5-[(7-cyclohexylpyrazolo[1,5-a]pyrimidin-6-yl)carbamoylamino]-3-methyl-2-pyridyl]-1,2,4-oxadiazol-5-yl]-N-[2-(2,6-dioxo-3-piperidyl)-1-oxo-isoindolin-5-yl]hexanamide]	0.2 to 0.5 µM	–	–	< 500 nM
CC(C)c1c(NC(=O)Nc2ccc(-c3nnc(CCCCCC(=O)N4CCN(c5ccc6c(c5)CN(C5CCC(=O)NC5=O)C6=O)CC4)o3)nc2)cnc2ccnn12 (stereo not shown) [Compound 110, 1-[6-[5-[6-[4-[2-(2,6-dioxo-3-piperidyl)-1-oxo-isoindolin-5-yl]piperazin-1-yl]-6-oxo-hexyl]-1,3,4-oxadiazol-2-yl]-3-pyridyl]-3-(7-isopropylpyrazolo[1,5-a]pyrimidin-6-yl)urea]	1 to 5 µM	–	–	> 5000 nM
O=C1CCC(N2Cc3cc(N4CCN(C(=O)CCCCCc5nnc(-c6ccc(NC(=O)Nc7cnc8ccnn8c7C7CCCC7)cn6)o5)CC4)ccc3C2=O)C(=O)N1 (stereo not shown) [Compound 111, 1-(7-cyclopentylpyrazolo[1,5-a]pyrimidin-6-yl)-3-[6-[5-[6-[4-[2-(2,6-dioxo-3-piperidyl)-1-oxo-isoindolin-5-yl]piperazin-1-yl]-6-oxo-hexyl]-1,3,4-oxadiazol-2-yl]-3-pyridyl]urea]	1 to 5 µM	–	–	> 5000 nM
Cc1cc(NC(=O)Nc2cnc3ccnn3c2C2CCC2)cnc1-c1noc(CCCCC(=O)N2CCN(c3ccc4c(c3)CN(C3CCC(=O)NC3=O)C4=O)CC2)n1 (stereo not shown) [Compound 112, 1-(7-cyclobutylpyrazolo[1,5-a]pyrimidin-6-yl)-3-[6-[5-[5-[4-[2-(2,6-dioxo-3-piperidyl)-1-oxo-isoindolin-5-yl]piperazin-1-yl]-5-oxo-pentyl]-1,2,4-oxadiazol-3-yl]-5-methyl-3-pyridyl]urea]	≤ 0.2 µM	–	–	> 5000 nM
O=C1CCC(N2Cc3cc(N4CCN(C(=O)CCCCCc5nc(-c6ncc(NC(=O)Nc7cnc8ccnn8c7C7CCC7)cc6Cl)no5)CC4)ccc3C2=O)C(=O)N1 (stereo not shown) [Compound 116, 1-[5-chloro-6-[5-[6-[4-[2-(2,6-dioxo-3-piperidyl)-1-oxo-isoindolin-5-yl]piperazin-1-yl]-6-oxo-hexyl]-1,2,4-oxadiazol-3-yl]-3-pyridyl]-3-(7-cyclobutylpyrazolo[1,5-a]pyrimidin-6-yl)urea]	≤ 0.2 µM	–	–	< 500 nM
O=C1CCC(N2Cc3cc(N4CCN(C(=O)CCCCCc5nc(-c6ncc(NC(=O)Nc7cnc8ccnn8c7C7CCCCC7)cc6Cl)no5)CC4)ccc3C2=O)C(=O)N1 (stereo not shown) [Compound 118, 1-[5-chloro-6-[5-[6-[4-[2-(2,6-dioxo-3-piperidyl)-1-oxo-isoindolin-5-yl]piperazin-1-yl]-6-oxo-hexyl]-1,2,4-oxadiazol-3-yl]-3-pyridyl]-3-(7-cyclohexylpyrazolo[1,5-a]pyrimidin-6-yl)urea]	≤ 0.2 µM	–	–	< 500 nM
O=C1CCC(N2Cc3cc(N4CCN(CCCCCCc5nc(-c6ncc(NC(=O)Nc7cnc8ccnn8c7C7CCCCC7)cc6Cl)no5)CC4)ccc3C2=O)C(=O)N1 (stereo not shown) [Compound 119, 1-[5-chloro-6-[5-[6-[4-[2-(2,6-dioxo-3-piperidyl)-1-oxo-isoindolin-5-yl]piperazin-1-yl]hexyl]-1,2,4-oxadiazol-3-yl]-3-pyridyl]-3-(7-cyclohexylpyrazolo[1,5-a]pyrimidin-6-yl)urea]	≤ 0.2 µM	–	–	< 500 nM
O=C1CCC(N2Cc3cc(N4CCN(C(=O)CCCc5nc(-c6ncc(NC(=O)Nc7cnc8ccnn8c7C7CCCCC7)cc6Cl)no5)CC4)ccc3C2=O)C(=O)N1 (stereo not shown) [Compound 120, 1-[5-chloro-6-[5-[4-[4-[2-(2,6-dioxo-3-piperidyl)-1-oxo-isoindolin-5-yl]piperazin-1-yl]-4-oxo-butyl]-1,2,4-oxadiazol-3-yl]-3-pyridyl]-3-(7-cyclohexylpyrazolo[1,5-a]pyrimidin-6-yl)urea]	≤ 0.2 µM	–	–	< 500 nM
Cc1cc(NC(=O)Nc2cnc3ccnn3c2C2CCCCC2)cnc1-c1noc(CCCCCCN2CCN(c3ccc4c(c3)CN(C3CCC(=O)NC3=O)C4=O)CC2)n1 (stereo not shown) [Compound 122, 1-(7-cyclohexylpyrazolo[1,5-a]pyrimidin-6-yl)-3-[6-[5-[6-[4-[2-(2,6-dioxo-3-piperidyl)-1-oxo-isoindolin-5-yl]piperazin-1-yl]hexyl]-1,2,4-oxadiazol-3-yl]-5-methyl-3-pyridyl]urea]	≤ 0.2 µM	–	–	< 500 nM
Cc1cc(NC(=O)Nc2cnc3ccnn3c2C2CCCCC2)cnc1-c1noc(CCCC(=O)Nc2ccc3c(c2)CN(C2CCC(=O)NC2=O)C3=O)n1 (stereo not shown) [Compound 123, 4-[3-[5-[(7-cyclohexylpyrazolo[1,5-a]pyrimidin-6-yl)carbamoylamino]-3-methyl-2-pyridyl]-1,2,4-oxadiazol-5-yl]-N-[2-(2,6-dioxo-3-piperidyl)-1-oxo-isoindolin-5-yl]butanamide]	≤ 0.2 µM	–	–	< 500 nM
Cc1cc(NC(=O)Nc2cnc3ccnn3c2C2CCCCC2)cnc1-c1noc(CCCCC(=O)N2CCN(c3ccc4c(c3)CN(C3CCC(=O)NC3=O)C4=O)CC2)n1 (stereo not shown) [Compound 124, 1-(7-cyclohexylpyrazolo[1,5-a]pyrimidin-6-yl)-3-[6-[5-[5-[4-[2-(2,6-dioxo-3-piperidyl)-1-oxo-isoindolin-5-yl]piperazin-1-yl]-5-oxo-pentyl]-1,2,4-oxadiazol-3-yl]-5-methyl-3-pyridyl]urea]	≤ 0.2 µM	–	–	1000 to 5000 nM
